In assay [1] the test system is human FGF-BP gene promoter. Nature of the assay: EGF activation of FGF-BP gene promoter luciferase reporter in ME-180 cells. The format is cell-based. As to conditions: EGF 5 ng/ml, 18 h. How it is done:
ME-180 cells were plated at a density of 5×10^5 cells per well and cultured for 24 h in IMEM supplemented with 5% dextran-charcoal-treated FBS. They were then incubated for 3 h in IMEM supplemented with Lipofectamine Plus and expression and reporter plasmids. Cells were washed and then incubated in IMEM for an additional 3 h before incubation for 18 h with EGF (5 ng/ml) in serum-free IMEM and subsequent lysis. Because of high background induction of pRL-CMV expression by EGF, firefly luciferase activity was normalized by protein concentration as described previously (32).
Cells were transfected with 3 μg of either pcDNA3, pcDNA3-AIB1, or pcDNA3-AIB1-Δ3, together with a luciferase reporter plasmid containing the human FGF-BP gene promoter (1 μg) (32) (FIG. 6). After incubation of cells for 18 h in the absence or presence of EGF (5 ng/ml) in serum-free medium, cell extracts were prepared and assayed for luciferase activity. Activity was normalized by protein concentration, and the normalized activity values were then expressed relative to that of cells transfected with pcDNA3 and not exposed to EGF. Data are means±SEM of values from three independent experiments, each performed in triplicate. *P<0.01 versus the corresponding value for control cells.
For orientation: In a reporter assay the amount or activity of a reporter protein is the signal.

For assay [2], the target named is T1, human estrogen receptor α (Homo sapiens, UniProt P03372).
T1 construct: expressed in transfected cells; host or cells: CHO cells
T1 sequence (P03372 1-595): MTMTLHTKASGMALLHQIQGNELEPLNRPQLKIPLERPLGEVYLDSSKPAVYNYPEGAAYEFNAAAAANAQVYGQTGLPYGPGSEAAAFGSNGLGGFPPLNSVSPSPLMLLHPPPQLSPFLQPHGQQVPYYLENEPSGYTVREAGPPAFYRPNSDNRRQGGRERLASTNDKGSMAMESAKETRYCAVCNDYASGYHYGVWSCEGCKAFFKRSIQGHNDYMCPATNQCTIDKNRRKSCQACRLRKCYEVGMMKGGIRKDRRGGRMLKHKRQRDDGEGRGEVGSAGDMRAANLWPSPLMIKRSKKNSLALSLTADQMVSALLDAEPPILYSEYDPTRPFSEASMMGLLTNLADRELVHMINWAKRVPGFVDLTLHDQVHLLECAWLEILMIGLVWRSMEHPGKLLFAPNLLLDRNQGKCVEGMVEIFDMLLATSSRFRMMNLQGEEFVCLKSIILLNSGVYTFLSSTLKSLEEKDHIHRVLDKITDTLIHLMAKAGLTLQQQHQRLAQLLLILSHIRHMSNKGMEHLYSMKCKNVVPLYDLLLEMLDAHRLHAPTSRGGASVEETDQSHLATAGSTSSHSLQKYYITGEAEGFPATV
Nature of the assay: Transient transfection ERE-luciferase reporter assay in CHO cells. The format is cell-based, hamster. The procedure:
To verify that the Δ3-AIB1 mRNA was translated in vivo, transient transfection of CHO cells (FIG. 2; see FIG. 4a) or COS-1 cells (see FIG. 5a) with the Δ3-AIB1 cDNA was performed. COS-1 and CHO cells were plated at densities of 2×10^5 and 5×10^5 cells per well, respectively, in six-well plates, and were cultured for 24 h at 37° C. under 5% CO2 in IMEM or Ham's F-12, respectively, supplemented with 5% FBS that had been treated with dextran-coated charcoal. The medium was then replaced with IMEM containing Lipofectamine Plus (Gibco BRL) and expression and reporter plasmids as indicated. After incubation for 3 h, the medium was replaced with IMEM (COS-1 cells) or Ham's F-12 (CHO cells), each containing 5% dextran-coated charcoal-treated FBS and nuclear receptor ligands. Cells were incubated for 24 h and then disrupted in passive lysis buffer (Promega). Portions (20 μl) of the resulting cell extract were assayed for both firefly and renilla luciferase activities with the Dual-Luciferase reporter assay system (Promega).
The effect of the deletion of the bHLH and PAS A domains was next examined in Δ3-AIB1 on protein function. AIB1 acts as a coactivator for several nuclear receptors, including those for estrogen and progesterone, which are important in breast carcinogenesis. […]

Results on two substances are retold here after patent US7282576B2, “Coactivators in the diagnosis and treatment of breast cancer” (Georgetown University, priority 2001, dated 2007).

Regarding “EGF: epidermal growth factor [reference compound]”, the “increase in FGF-BP promoter reporter activity” value in assay [1] (ME-180 control cells with empty expression vector) was 2.5 fold.
Turning to “AIB1: 156-kDa full-length nuclear receptor coactivator amplified in breast cancer 1, expressed from pcDNA3-AIB1”, the “increase of EGF induction of FGF-BP promoter reporter activity” value in assay [1] (ME-180 cells, 3 μg vector) is listed as “increased slightly”. For the same substance, in assay [2] (0.3 μg AIB1 vector vs 3 μg Δ3-AIB1 vector), the “factor of potentiation of the estrogen response at approximately equal amounts of recombinant protein” value is on record as 1.1. In addition, the “increase in estrogen-induced luciferase activity” value in assay [2] (3 μg expression vector, 10 nM estradiol-17β, 24 h) is given as 1.4 fold.
